# Results from patent US20230150974A1 (Foghorn Therapeutics Inc., priority 2020, published 2023).
# Experiments:
# HiBiT-BRM = target: T1, HiBiT-BRM (Homo sapiens, UniProt P51531); test: HiBiT-BRM cell-based degradation assay (Nano-Glo HiBiT Lytic Detection); conditions: HeLa cells expressing HiBiT-BRM, 24 h; for DC50: read-out: BRM HiBit Degradation IC50
# T1 construct: expressed in transfected cells
# Method in brief: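 HeLa cells stably expressing HiBiT-tagged BRM were treated for 24 h, then lysed with LgBiT-containing Nano-Glo reagent and luminescence read. % degradation scaled between DMSO (high control) and 2 μM reference BRM/BRG1 degrader (low control).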
# HiBit-BRG1 = target: T2, HiBit-BRG1 (Homo sapiens, UniProt P51532); test: HiBit-BRG1 cell-based degradation assay (Nano-Glo HiBiT Lytic Detection); conditions: HeLa cells expressing HiBit-BRG1 and LgBit, 24 h; for DC50: read-out: BRG1 HiBit Degradation IC50; for Dmax: read-out: BRG1 HiBit Degradation Maximum (%)
# T2 construct: expressed in transfected cells
# Method in brief: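 Seed 5000 HeLa HiBit-BRG1/LgBit cells per well; treat 24 h; equilibrate 15 min at room temperature; add Nano-Glo HiBiT lytic reagent, shake 10 min, read luminescence. Percent degradation is scaled between DMSO and 2 μM reference degrader wells.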
# T2 sequence (P51532 whole entry): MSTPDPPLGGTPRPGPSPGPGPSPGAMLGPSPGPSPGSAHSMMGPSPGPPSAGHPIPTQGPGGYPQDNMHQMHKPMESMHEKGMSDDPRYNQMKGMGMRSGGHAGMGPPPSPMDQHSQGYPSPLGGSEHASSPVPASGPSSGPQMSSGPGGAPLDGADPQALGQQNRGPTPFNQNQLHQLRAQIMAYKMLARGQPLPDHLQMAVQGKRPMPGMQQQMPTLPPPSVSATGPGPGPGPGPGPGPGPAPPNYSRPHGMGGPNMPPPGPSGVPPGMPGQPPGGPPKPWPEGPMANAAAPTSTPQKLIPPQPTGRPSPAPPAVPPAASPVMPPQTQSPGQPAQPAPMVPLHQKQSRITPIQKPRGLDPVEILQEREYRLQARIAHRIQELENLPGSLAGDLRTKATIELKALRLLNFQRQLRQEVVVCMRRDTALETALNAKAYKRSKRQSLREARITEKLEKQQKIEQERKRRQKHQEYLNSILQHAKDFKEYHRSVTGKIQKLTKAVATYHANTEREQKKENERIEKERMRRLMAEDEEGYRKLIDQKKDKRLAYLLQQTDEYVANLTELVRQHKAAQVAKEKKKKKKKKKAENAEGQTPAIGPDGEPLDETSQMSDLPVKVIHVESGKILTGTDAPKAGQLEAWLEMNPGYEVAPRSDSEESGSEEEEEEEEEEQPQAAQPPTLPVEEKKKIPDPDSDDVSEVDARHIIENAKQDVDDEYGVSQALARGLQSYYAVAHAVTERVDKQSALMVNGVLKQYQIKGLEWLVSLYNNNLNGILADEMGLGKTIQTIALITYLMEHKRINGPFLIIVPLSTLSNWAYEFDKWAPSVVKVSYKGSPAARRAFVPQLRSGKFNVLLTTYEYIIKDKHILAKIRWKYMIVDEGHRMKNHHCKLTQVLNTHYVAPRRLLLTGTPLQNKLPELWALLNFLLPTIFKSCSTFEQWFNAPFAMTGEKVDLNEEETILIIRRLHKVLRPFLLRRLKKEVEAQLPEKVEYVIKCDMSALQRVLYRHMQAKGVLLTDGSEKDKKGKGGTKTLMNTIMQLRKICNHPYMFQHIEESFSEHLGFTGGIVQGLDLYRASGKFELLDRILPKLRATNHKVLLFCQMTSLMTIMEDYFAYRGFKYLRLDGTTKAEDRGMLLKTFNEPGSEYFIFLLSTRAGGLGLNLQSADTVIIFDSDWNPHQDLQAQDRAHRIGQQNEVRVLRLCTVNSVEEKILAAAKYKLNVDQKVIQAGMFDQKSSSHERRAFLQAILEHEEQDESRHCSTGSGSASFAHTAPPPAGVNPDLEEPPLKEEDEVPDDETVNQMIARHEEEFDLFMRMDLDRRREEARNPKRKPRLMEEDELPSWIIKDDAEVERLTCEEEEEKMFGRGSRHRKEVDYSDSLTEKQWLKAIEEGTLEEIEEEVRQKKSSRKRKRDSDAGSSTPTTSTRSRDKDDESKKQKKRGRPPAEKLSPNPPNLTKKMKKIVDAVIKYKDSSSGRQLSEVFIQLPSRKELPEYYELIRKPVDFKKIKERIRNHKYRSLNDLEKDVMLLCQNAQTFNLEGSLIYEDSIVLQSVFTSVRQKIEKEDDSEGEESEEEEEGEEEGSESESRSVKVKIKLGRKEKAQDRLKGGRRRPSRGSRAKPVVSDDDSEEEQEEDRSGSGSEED
# T1 sequence (P51531 whole entry): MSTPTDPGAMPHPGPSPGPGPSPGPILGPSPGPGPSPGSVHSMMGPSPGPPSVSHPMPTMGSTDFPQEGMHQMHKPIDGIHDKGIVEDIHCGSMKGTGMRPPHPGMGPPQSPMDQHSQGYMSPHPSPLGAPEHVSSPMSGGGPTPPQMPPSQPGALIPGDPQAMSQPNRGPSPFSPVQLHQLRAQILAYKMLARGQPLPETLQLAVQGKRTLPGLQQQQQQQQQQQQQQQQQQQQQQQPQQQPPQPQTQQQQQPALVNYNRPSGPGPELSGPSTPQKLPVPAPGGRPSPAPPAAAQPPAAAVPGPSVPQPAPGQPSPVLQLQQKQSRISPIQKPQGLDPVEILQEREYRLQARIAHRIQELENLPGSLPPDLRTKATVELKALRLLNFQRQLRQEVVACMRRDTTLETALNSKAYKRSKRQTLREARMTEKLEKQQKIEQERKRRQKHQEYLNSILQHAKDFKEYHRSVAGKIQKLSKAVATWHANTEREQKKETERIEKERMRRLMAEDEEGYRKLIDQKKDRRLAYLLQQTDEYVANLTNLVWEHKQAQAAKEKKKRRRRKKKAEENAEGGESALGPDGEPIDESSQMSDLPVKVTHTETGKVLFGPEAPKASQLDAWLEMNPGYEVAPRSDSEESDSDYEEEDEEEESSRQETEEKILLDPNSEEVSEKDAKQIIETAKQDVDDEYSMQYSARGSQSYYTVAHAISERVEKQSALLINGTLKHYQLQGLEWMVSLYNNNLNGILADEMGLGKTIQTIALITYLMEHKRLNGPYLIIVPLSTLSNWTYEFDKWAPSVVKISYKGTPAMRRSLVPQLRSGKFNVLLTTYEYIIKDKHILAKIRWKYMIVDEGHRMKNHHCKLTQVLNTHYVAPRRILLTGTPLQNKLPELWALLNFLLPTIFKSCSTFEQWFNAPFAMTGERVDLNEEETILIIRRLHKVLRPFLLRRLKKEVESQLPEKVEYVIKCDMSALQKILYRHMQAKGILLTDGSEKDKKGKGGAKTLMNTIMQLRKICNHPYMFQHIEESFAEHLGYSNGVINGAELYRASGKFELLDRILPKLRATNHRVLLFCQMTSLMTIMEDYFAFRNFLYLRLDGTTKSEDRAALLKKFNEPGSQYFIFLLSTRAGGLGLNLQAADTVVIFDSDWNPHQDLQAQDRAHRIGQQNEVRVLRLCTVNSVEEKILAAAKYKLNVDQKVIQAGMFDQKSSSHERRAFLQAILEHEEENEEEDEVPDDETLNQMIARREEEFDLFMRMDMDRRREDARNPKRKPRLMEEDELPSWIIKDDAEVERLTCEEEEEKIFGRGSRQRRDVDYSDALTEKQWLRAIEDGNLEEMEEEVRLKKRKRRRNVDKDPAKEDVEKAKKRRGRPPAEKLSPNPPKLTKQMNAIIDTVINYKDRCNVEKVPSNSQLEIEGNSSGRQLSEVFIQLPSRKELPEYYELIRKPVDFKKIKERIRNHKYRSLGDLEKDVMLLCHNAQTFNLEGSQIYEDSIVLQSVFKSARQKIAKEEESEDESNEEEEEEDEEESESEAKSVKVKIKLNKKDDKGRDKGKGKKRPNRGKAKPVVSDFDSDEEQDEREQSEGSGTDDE
Compound,BRM HiBit Degradation Maximum (%) (HiBiT-BRM),DC50 (HiBiT-BRM) [nM],DC50 (HiBit-BRG1) [nM],Dmax (HiBit-BRG1) [%]
"Nc1nnc(-c2ccccc2O)cc1OCCc1ccc(CNCCCCOc2cccc3c2C(=O)N(C2CCC(=O)NC2=O)C3=O)cc1 (centres unmarked) [Compound 121, 4-(4-((4-(2-((3-amino-6-(2-hydroxyphenyl)pyridazin-4-yl)oxy)ethyl)benzyl)amino)butoxy)-2-(2,6-dioxopiperidin-3-yl)isoindoline-1,3-dione]",C (“C” indicates maximum degradation <50%),> 1000,> 1000,< 50
"Nc1nnc(-c2ccccc2O)cc1OCCc1ccc(CNCCCOc2cccc3c2C(=O)N(C2CCC(=O)NC2=O)C3=O)cc1 (centres unmarked) [Compound 122, 4-[3-([[4-(2-[[3-amino-6-(2-hydroxyphenyl)pyridazin-4-yl]oxy]ethyl)phenyl]methyl]amino)propoxy]-2-(2,6-dioxopiperidin-3-yl)isoindole-1,3-dione]",B (“B” indicates maximum degradation ≥50%),> 100,> 1000,> 50
"Nc1nnc(-c2ccccc2O)cc1OCCc1ccc(CNCCCC2CN(c3ccc4c(c3)C(=O)N(C3CCC(=O)NC3=O)C4=O)C2)cc1 (centres unmarked) [Compound 123, 5-[3-[3-([[4-(2-[[3-amino-6-(2-hydroxyphenyl)pyridazin-4-yl]oxy]ethyl)phenyl]methyl]amino)propyl]azetidin-1-yl]-2-(2,6-dioxopiperidin-3-yl)isoindole-1,3-dione]",B (“B” indicates maximum degradation ≥50%),> 10,> 1000,< 50
"Nc1nnc(-c2cccc(Cl)c2O)cc1OCCc1ccc(CNCCCCCOc2cccc3c2C(=O)N(C2CCC(=O)NC2=O)C3=O)cc1 (centres unmarked) [Compound 124, 4-((5-((4-(2-((3-amino-6-(3-chloro-2-hydroxyphenyl)pyridazin-4-yl)oxy)ethyl)benzyl)amino)pentyl)oxy)-2-(2,6-dioxopiperidin-3-yl)isoindoline-1,3-dione]",C (“C” indicates maximum degradation <50%),> 1000,> 1000,< 50
"Nc1nnc(-c2ccccc2O)cc1OCCc1ccc(CNC(=O)CCCCNc2ccc3nnn(C4CCC(=O)NC4=O)c(=O)c3c2)cc1 (centres unmarked) [Compound 125, N-(4-(2-((3-amino-6-(2-hydroxyphenyl)pyridazin-4-yl)oxy)ethyl)benzyl)-5-((3-(2,6-dioxopiperidin-3-yl)-4-oxo-3,4-dihydrobenzo[d][1,2,3]triazin-6-yl)amino)pentanamide]",C (“C” indicates maximum degradation <50%),> 1000,> 1000,> 50
"Nc1nnc(-c2ccccc2O)cc1OCCc1ccc(CN2CCN(CCOc3cccc4c3C(=O)N(C3CCC(=O)NC3=O)C4=O)CC2)cc1 (centres unmarked) [Compound 126, 4-[2-(4-[[4-(2-[[3-amino-6-(2-hydroxyphenyl)pyridazin-4-yl]oxy]ethyl)phenyl]methyl]piperazin-1-yl)ethoxy]-2-(2,6-dioxopiperidin-3-yl)isoindole-1,3-dione]",C (“C” indicates maximum degradation <50%),> 1000,> 1000,< 50
"Nc1nnc(-c2ccccc2O)cc1OCCc1ccc(CN2CC(CCCOc3cccc4c3C(=O)N(C3CCC(=O)NC3=O)C4=O)C2)cc1 (centres unmarked) [Compound 127, 4-[3-(1-[[4-(2-[[3-amino-6-(2-hydroxyphenyl)pyridazin-4-yl]oxy]ethyl)phenyl]methyl]azetidin-3-yl)propoxy]-2-(2,6-dioxopiperidin-3-yl)isoindole-1,3-dione]",C (“C” indicates maximum degradation <50%),> 1000,> 1000,< 50
"Nc1nnc(-c2ccccc2O)cc1OCCc1ccc(CNC(=O)CCCCOc2ccc3c(c2)C(=O)N(C2CCC(=O)NC2=O)C3)cc1 (centres unmarked) [Compound 128, N-(4-(2-((3-amino-6-(2-hydroxyphenyl)pyridazin-4-yl)oxy)ethyl)benzyl)-5-((2-(2,6-dioxopiperidin-3-yl)-3-oxoisoindolin-5-yl)oxy)pentanamide]",C (“C” indicates maximum degradation <50%),> 1000,> 1000,
"Nc1nnc(-c2ccccc2O)cc1OCCc1ccc(CNC(=O)CCCCOc2ccc3c(c2)CN(C2CCC(=O)NC2=O)C3=O)cc1 (centres unmarked) [Compound 129, N-(4-(2-((3-amino-6-(2-hydroxyphenyl)pyridazin-4-yl)oxy)ethyl)benzyl)-5-((2-(2,6-dioxopiperidin-3-yl)-1-oxoisoindolin-5-yl)oxy)pentanamide]",C (“C” indicates maximum degradation <50%),> 1000,> 1000,
"Nc1nnc(-c2ccccc2O)cc1OCCc1ccc(CNC(=O)CCCCOc2cccc3c2CN(C2CCC(=O)NC2=O)C3=O)cc1 (centres unmarked) [Compound 130, N-(4-(2-((3-amino-6-(2-hydroxyphenyl)pyridazin-4-yl)oxy)ethyl)benzyl)-5-((2-(2,6-dioxopiperidin-3-yl)-1-oxoisoindolin-4-yl)oxy)pentanamide]",C (“C” indicates maximum degradation <50%),> 1000,> 1000,< 50
"Cc1ncsc1-c1ccc(CNC(=O)[C@@H]2C[C@@H](O)CN2C(=O)[C@@H](NC(=O)CCCCCCCCCNCc2ccc(CCN(C)c3cc(-c4ccccc4O)nnc3N)cc2)C(C)(C)C)cc1 [Compound 131, (2S,4R)-1-((S)-2-(10-((4-(2-((3-amino-6-(2-hydroxyphenyl)pyridazin-4-yl)(methyl)amino)ethyl)benzyl)amino)decanamido)-3,3-dimethylbutanoyl)-4-hydroxy-N-(4-(4-methylthiazol-5-yl)benzyl)pyrrolidine-2-carboxamide]",A (“A” indicates maximum degradation ≥75%),> 100,> 100,> 50
"Cc1ncsc1-c1ccc(CNC(=O)[C@@H]2C[C@@H](O)CN2C(=O)[C@@H](NC(=O)CCCCCCCCC(=O)NCc2ccc(CCN(C)c3cc(-c4ccccc4O)nnc3N)cc2)C(C)(C)C)cc1 [Compound 132, N′-[[4-(2-[[3-amino-6-(2-hydroxyphenyl)pyridazin-4-yl](methyl)amino]ethyl)phenyl]methyl]-N-[(2S)-1-[(2S,4R)-4-hydroxy-2-([[4-(4-methyl-1,3-thiazol-5-yl)phenyl]methyl]carbamoyl)pyrrolidin-1-yl]-3,3-dimethyl-1-oxobutan-2-yl]decanediamide]",A (“A” indicates maximum degradation ≥75%),> 100,> 1000,> 50
"Cc1ncsc1-c1ccc(CNC(=O)[C@@H]2C[C@@H](O)CN2C(=O)[C@@H](NC(=O)CCCCCCCCCCCCCCCC(=O)NCc2ccc(CCN(C)c3cc(-c4ccccc4O)nnc3N)cc2)C(C)(C)C)cc1 [Compound 133, N1-(4-(2-((3-amino-6-(2-hydroxyphenyl)pyridazin-4-yl)(methyl)amino)ethyl)benzyl)-N17-((S)-1-((2S,4R)-4-hydroxy-2-((4-(4-methylthiazol-5-yl)benzyl)carbamoyl)pyrrolidin-1-yl)-3,3-dimethyl-1-oxobutan-2-yl)heptadecanediamide]",B (“B” indicates maximum degradation ≥50%),> 100,> 1000,< 50
